Columns and labels:
Assay type in all cases: physicochemical
[1] = Stability test under humid condition at 40° C.; settings: Immediately after Formulation
Method: Each of the powder formulations obtained in Example 3 was tested under heating condition at 40° C. under humid condition.

[2] = Stability test under heating condition at 80° C. (HPLC impurities, powder X-ray diffraction)
Method: Each of the powder formulations obtained in Example 3 was tested under heating condition at 80° C. The purity was determined by high performance liquid chromatography (measured wave length; 242 nm). The state of crystallization was estimated by powder X-ray diffraction.

[3] = Dissolution test, second method of Japanese Pharmacopoeia (paddle method); settings: after 60 minutes; paddle method 50 rpm, 0.1 w/v % sodium lauryl sulfate solution 900 mL, 37° C.
Method: Dissolution test was performed following the second method of Japanese Pharmacopoeia dissolution test method (paddle method, 50 rpm) using a 0.1 w/v % deaerated sodium lauryl sulfate solution (900 mL, 37° C.). The tablets (133.00 mg/tablet; containing 5 mg of bulk drug) produced in Example 1 were put into the test solution as they were. For referential control, the bulk drug consisting crystal was put into the test solution as it was. The temperature was adjusted to 37±0.1° C.

[4] = 80° C., Open Condition, After 3 days

## CCOC(=O)C(COC(=O)Cc1ccc(NC(=O)c2ccccc2-c2ccc(C(F)(F)F)cc2)c(C(=O)N(C)C)c1)(C(=O)OCC)c1ccccc1 [MTP Inhibiting Compound, diethyl 2-(2-{3-dimethylcarbamoyl-4-[(4′-trifluoromethyl-biphenyl-2-carbonyl)-amino]-phenyl}-acetoxymethyl)-2-phenyl-malonate]
[1]
  Impurities Max (%): 0.11%
  Impurities Total (%): 0.40%
[2]; [4]
  Impurities Max (%): 0.08%
  Impurities Total (%): 0.24%
[2]; Immediately after Formulation
  Impurities Max (%): 0.28%
  Impurities Total (%): 0.40%
[3]
  dissolution: did not dissolve

— patent US20060153913A1, “Solid formulation with improved solubility and stability, and method for producing said formulation” (priority 2004, published 2006)
